Reference: the supplement of paper PMC12463676, “Small-molecule dissolution of stress granules by redox modulation benefits ALS models” (Nature Chemical Biology, 2025)

What was measured:
potassium arsenate = compound: O=[As]([O-])(O)O.[K+] [potassium arsenate]; assay: thermal stability z-score vs DMSO; higher = more thermally stabilized by treatment; details: HeLa; arsenate concentration 1 mM
Description: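 Cellular thermal proteome profiling in HeLa cells treated with 1 mM arsenate for 1 h (DMSO pretreatment), heated to ten temperatures (37-66.3 °C). Soluble protein was quantified by TMT mass spectrometry relative to DMSO controls; the thermal stability score was transformed to a z-score; mean of n = 3 experiments.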

lipoamide = compound: NC(=O)CCCCC1CCSS1 [lipoamide]; assay: as above; details: HeLa, lipoamide concentration 100 µM
Description: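 Cellular thermal proteome profiling in HeLa cells. Cells were treated with 100 µM lipoamide for 1 h, with or without 1 mM arsenate for a further 1 h, then heated to ten temperatures (37-66.3 °C), and soluble protein was quantified by TMT mass spectrometry relative to 0.1% DMSO controls. The thermal stability score (sum of log2 fold changes minus the abundance score) was transformed to a z-score; mean of n = 3 experiments.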

[1] = arsenate co-treatment: 1 mM arsenate 1 h
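Further: each temperature applied for 3 min, abundance score taken as mean log2 fold change at the two lowest temperatures, z-score obtained by mean subtraction and division by SD.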

Chain of UniProt P15328 (P15328 whole entry, looked up): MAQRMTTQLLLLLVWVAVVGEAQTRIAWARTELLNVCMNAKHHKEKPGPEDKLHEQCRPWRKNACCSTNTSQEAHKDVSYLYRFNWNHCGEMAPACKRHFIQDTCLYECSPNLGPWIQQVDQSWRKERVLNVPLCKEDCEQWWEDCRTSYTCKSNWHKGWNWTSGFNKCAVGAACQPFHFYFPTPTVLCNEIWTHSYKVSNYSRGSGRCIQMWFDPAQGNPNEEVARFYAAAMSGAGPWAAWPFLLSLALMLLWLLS
Chain of UniProt P85037 (P85037 whole entry): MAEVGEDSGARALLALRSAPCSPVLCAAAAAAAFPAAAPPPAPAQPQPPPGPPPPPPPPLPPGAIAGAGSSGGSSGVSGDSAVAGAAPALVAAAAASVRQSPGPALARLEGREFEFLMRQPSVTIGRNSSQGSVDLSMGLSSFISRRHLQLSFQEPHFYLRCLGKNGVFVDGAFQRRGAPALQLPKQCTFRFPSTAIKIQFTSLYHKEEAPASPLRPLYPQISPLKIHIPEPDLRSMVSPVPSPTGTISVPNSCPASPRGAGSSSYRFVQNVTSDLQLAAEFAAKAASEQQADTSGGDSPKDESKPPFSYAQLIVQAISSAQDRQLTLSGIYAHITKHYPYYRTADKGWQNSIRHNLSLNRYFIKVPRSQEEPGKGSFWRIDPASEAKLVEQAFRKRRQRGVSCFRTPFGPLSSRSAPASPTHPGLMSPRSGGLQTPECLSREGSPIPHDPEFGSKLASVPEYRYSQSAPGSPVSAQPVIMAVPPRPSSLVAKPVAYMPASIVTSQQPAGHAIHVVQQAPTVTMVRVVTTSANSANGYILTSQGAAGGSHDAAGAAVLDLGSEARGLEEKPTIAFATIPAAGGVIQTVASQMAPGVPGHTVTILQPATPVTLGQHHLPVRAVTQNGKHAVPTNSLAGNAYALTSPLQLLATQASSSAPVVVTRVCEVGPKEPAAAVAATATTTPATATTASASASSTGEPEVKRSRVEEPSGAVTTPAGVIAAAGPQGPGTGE
Chain of UniProt P35637 (P35637 whole entry): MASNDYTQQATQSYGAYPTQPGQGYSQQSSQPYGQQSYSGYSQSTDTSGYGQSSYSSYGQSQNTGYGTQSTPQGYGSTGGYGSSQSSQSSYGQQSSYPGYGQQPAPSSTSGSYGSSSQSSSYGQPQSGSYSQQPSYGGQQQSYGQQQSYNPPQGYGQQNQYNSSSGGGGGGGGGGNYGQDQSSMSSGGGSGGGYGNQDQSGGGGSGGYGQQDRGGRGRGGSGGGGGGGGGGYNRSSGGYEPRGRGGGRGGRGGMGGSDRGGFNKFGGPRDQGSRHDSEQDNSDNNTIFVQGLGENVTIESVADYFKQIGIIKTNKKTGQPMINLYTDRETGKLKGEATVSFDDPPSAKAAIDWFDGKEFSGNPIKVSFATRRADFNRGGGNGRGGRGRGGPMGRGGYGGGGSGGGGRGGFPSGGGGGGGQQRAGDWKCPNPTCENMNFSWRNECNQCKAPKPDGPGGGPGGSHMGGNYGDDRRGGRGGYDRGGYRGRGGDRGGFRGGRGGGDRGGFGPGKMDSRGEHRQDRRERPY
Chain of UniProt Q8IVH2 (Q8IVH2 whole entry): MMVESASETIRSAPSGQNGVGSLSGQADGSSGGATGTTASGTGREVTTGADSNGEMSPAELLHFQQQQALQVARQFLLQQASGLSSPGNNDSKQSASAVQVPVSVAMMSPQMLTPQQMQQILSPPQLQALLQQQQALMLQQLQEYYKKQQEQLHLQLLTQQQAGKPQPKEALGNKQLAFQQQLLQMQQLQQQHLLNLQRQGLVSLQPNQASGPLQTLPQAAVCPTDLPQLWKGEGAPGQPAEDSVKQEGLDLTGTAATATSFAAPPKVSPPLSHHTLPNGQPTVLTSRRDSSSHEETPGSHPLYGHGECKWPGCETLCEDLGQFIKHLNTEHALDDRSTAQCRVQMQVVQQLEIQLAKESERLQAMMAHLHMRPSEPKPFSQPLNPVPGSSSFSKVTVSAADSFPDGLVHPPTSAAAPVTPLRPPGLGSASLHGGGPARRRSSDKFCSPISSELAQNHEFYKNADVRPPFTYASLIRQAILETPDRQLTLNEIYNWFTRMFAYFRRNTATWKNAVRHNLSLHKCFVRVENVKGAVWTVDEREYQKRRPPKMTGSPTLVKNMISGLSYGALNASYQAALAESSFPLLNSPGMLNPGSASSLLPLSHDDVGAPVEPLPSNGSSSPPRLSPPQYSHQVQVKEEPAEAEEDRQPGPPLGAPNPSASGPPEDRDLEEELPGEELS
Chain of UniProt P51114 (P51114 whole entry): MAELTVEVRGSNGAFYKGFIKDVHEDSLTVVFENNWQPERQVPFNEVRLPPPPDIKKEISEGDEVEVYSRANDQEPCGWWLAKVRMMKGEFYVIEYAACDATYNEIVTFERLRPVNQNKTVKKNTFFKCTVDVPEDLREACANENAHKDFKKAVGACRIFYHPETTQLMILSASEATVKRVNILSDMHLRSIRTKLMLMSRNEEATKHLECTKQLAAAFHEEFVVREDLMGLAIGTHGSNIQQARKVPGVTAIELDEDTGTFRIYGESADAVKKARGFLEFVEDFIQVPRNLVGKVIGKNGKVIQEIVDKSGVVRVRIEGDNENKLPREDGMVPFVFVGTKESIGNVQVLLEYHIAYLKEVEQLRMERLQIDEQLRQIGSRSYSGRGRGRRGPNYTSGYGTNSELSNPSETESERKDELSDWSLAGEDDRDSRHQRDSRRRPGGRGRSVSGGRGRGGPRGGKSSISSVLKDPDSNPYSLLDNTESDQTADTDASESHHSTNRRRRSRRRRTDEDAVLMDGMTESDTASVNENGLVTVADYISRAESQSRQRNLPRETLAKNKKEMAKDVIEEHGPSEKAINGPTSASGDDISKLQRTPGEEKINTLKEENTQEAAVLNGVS
Chain of UniProt Q8IY81 (Q8IY81 whole entry): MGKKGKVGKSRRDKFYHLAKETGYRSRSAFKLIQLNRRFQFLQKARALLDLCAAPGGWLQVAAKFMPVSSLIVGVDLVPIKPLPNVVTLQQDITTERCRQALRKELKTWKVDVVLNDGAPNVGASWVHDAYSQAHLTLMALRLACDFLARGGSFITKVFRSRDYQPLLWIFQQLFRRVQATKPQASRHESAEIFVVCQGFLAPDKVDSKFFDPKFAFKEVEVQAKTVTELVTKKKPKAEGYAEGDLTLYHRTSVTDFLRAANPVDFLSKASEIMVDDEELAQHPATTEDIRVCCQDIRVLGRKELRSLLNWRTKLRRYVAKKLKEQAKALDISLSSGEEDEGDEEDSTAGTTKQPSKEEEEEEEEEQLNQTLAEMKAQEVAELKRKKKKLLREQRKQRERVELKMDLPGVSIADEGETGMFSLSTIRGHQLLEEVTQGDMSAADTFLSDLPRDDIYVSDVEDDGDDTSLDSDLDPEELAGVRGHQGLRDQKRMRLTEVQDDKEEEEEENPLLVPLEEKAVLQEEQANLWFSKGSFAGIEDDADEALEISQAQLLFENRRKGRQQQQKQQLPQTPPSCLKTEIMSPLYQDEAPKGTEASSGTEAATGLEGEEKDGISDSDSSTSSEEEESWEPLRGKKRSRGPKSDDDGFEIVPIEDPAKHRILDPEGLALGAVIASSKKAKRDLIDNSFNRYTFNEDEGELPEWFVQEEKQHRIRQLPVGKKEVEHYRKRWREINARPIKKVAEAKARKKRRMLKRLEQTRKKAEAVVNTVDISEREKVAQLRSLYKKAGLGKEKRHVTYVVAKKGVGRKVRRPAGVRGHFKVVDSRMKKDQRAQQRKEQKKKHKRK
Chain of UniProt P62942 (P62942 whole entry): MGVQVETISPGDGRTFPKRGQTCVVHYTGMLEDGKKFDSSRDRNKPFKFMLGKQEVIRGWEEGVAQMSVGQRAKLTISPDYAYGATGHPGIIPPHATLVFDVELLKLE
Chain of UniProt Q9NWM8 (Q9NWM8 whole entry): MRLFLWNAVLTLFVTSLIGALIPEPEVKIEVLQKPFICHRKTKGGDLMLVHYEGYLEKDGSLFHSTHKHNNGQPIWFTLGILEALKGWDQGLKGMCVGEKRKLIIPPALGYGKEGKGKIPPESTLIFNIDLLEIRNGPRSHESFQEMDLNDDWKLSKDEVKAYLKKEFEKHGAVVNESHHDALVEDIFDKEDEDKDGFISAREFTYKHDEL
Chain of UniProt Q96AE4 (Q96AE4 whole entry): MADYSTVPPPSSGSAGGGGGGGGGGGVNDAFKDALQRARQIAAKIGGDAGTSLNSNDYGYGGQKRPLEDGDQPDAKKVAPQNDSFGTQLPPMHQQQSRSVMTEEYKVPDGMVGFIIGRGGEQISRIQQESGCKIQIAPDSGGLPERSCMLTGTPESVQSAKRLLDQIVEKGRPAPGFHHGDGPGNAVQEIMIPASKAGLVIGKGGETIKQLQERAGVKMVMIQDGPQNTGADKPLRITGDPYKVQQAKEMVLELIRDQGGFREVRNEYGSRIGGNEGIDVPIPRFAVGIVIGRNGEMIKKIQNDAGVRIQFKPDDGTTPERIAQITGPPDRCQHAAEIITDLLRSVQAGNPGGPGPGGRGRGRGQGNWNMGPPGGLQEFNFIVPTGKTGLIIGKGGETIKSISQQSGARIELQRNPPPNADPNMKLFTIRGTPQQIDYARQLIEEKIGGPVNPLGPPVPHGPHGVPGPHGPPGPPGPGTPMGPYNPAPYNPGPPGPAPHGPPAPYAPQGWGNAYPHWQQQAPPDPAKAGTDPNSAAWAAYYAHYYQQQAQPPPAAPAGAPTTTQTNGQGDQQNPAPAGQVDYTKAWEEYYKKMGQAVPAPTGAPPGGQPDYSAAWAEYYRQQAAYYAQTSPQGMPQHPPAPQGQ

Target	thermal stability z-score (potassium arsenate)	thermal stability z-score (lipoamide; [1])	thermal stability z-score (lipoamide; arsenate co-treatment: none)
FIP1L1 (UniProt Q6UN15)	-1.73	0.903	0.265
FIS1 (UniProt Q9Y3D6)	-0.678	-0.114	0.595
FKBP1A (UniProt P62942)	-1.96	0.374	0.262
FKBP2 (UniProt P26885)	0.177	-3.2	-3.35
FKBP3 (UniProt Q00688)	-0.406	0.676	0.552
FKBP4 (UniProt Q02790)	0.191	0.198	0.244
FKBP5 (UniProt Q13451)	-0.667	-0.637	-0.429
FKBP7 (UniProt Q9Y680)	-0.253	-4.17	-4.05
FKBP8 (UniProt Q14318)	1.05	-1.33	-0.861
FKBP9 (UniProt O95302)	0.508	-3.58	-2.22
FKBP10 (UniProt Q96AY3)	0.321	-3.58	-2.95
FKBP14 (UniProt Q9NWM8)	-0.591	-3.79	-2.85
FKBP15 (UniProt Q5T1M5)	0.523	-0.422	-0.17
FKBPL (UniProt Q9UIM3)	-0.0646	0.222	0.087
FLAD1 (UniProt Q8NFF5)	-1.16	0.0301	0.05
FLII (UniProt Q13045)	0.68	-0.35	0.0176
FLJ13984|METTL8	0.187	-0.0305	-0.13
FLNA (UniProt P21333)	-0.4	0.22	0.544
FLNB (UniProt O75369)	-0.574	0.683	0.798
FLNC (UniProt Q14315)	0.567	0.266	0.657
FLOT1 (UniProt O75955)	-0.283	1.38	0.653
FLOT2 (UniProt Q14254)	-1.32	0.746	0.534
FLVCR1 (UniProt Q9Y5Y0)	-0.43	-0.393	-0.367
FLYWCH2 (UniProt Q96CP2)	0.0187	0.101	0.222

Target	thermal stability z-score (potassium arsenate)	thermal stability z-score (lipoamide; [1])	thermal stability z-score (lipoamide; arsenate co-treatment: none)
FMNL1 (UniProt O95466)	-0.153	-0.412	-0.507
FMNL2 (UniProt Q96PY5)	-0.048	0.0679	-0.0271
FMR1 (UniProt Q06787)	0.0999	0.0851	0.195
FN3KRP (UniProt Q9HA64)	0.155	-0.401	0.365
FNBP1 (UniProt Q96RU3)	0.336	0.146	0.0859
FNBP1L (UniProt Q5T0N5)	-0.284	-0.051	0.0394
FNBP4 (UniProt Q8N3X1)	-0.51	0.826	1.2
FNDC3A (UniProt Q9Y2H6)	0.846	-0.542	0.324
FNDC3B (UniProt Q53EP0)	3.13	-0.593	0.623
FNIP1 (UniProt Q8TF40)	0.000327	0.272	0.0643
FNTA (UniProt P49354)	0.355	-0.0233	-0.0253
FOCAD (UniProt Q5VW36)	-0.279	0.151	0.411
FOLR1 (UniProt P15328)	0.366	0.588	0.376
FOSL1 (UniProt P15407)	-0.444	0.361	-0.0186
FOSL2 (UniProt P15408)	-2.25	1.86	0.702
FOXK1 (UniProt P85037)	1.86	0.345	-0.0499
FOXK2 (UniProt Q01167)	0.133	0.0506	-0.306
FOXO1 (UniProt Q12778)	0.182	-0.211	-0.123
FOXO3 (UniProt O43524)	0.19	-0.0135	-0.184
FOXP4 (UniProt Q8IVH2)	0.363	-0.605	-0.281
FOXRED1 (UniProt Q96CU9)	0.0548	-0.111	-0.24
FOXRED2 (UniProt Q8IWF2)	0.897	-1.43	-1.2
FPGS (UniProt Q05932)	0.864	0.0221	-0.181
FPGT (UniProt O14772)	0.0182	-0.111	0.182

Target	thermal stability z-score (potassium arsenate)	thermal stability z-score (lipoamide; [1])	thermal stability z-score (lipoamide; arsenate co-treatment: none)
FRA10AC1 (UniProt Q70Z53)	0.108	0.081	0.0654
FRG1 (UniProt Q14331)	0.312	0.146	0.243
FRMD8 (UniProt Q9BZ67)	-0.172	0.263	0.131
FRRS1 (UniProt Q6ZNA5)	0.586	-0.316	-0.157
FRYL (UniProt O94915)	0.161	-0.0982	0.156
FSCN1 (UniProt Q16658)	-1.09	0.0281	-0.236
FSTL3 (UniProt O95633)	0.0815	-3.19	-2.34
FTH1 (UniProt P02794)	-2.18	0.266	0.204
FTO (UniProt Q9C0B1)	1.38	-0.0697	-0.447
FTSJ1 (UniProt Q9UET6)	-0.793	-0.787	-0.171
FTSJ3 (UniProt Q8IY81)	-0.519	-0.198	0.792
FUBP1 (UniProt Q96AE4)	0.0234	0.139	0.157
FUBP3 (UniProt Q96I24)	0.385	0.25	0.329
FUCA2 (UniProt Q9BTY2)	1.09	-0.251	-0.214
FUK (UniProt Q8N0W3)	0.0734	0.775	0.461
FUNDC2 (UniProt Q9BWH2)	-0.587	0.0791	-0.555
FURIN (UniProt P09958)	0.11	0.3	0.345
FUS (UniProt P35637)	0.635	0.844	1.27
FUT8 (UniProt Q9BYC5)	0.521	-0.561	-0.0456
FUT11 (UniProt Q495W5)	0.00651	-1.71	-0.756
FXN (UniProt Q16595)	1.14	0.688	0.447
FXR1 (UniProt P51114)	0.794	0.487	0.714
FXR2 (UniProt P51116)	0.783	0.0778	0.0347
FYCO1 (UniProt Q9BQS8)	-0.152	-0.321	-0.354
